Measured values published in patent US10829833B2, “Biological processing of scrap metal, household waste and/or industrial waste for the isolation of heavy metals” (B.R.A.I.N. Biotechnology Research and Information Network AG, priority 2015, dated 2020).

What was measured:
Assay in all cases: Microbial growth on agar plates with different concentrations of AgNO3 or HAuCl4
Format in all cases: cell-based
Parameters in all cases: key: x = growth; (x) = weak growth
Conditions in all cases: agar plate
Bacillus sphaericus = test system: Bacillus sphaericus
From the text: (§1) To investigate the tolerated concentration of silver and gold, the microorganisms were propagated in liquid medium and streaked on agar plates with different concentrations of AgNO3 or HAuCl4, respectively.

[1] = test system: Cupriavidus metallidurans
From the text: as §1

Escherichia coli = test system: Escherichia coli
From the text: as §1

Xanthomonas campestris = test system: Xanthomonas campestris
From the text: as §1

[Au+3].[Cl-].[Cl-].[Cl-].[Cl-].[H+] [HAuCl4]
x: Microbial growth in dependence on HAuCl4 concentration (Bacillus sphaericus; HAuCl4 2 μM) | Microbial growth in dependence on HAuCl4 concentration (Bacillus sphaericus; HAuCl4 20 μM) | Microbial growth in dependence on HAuCl4 concentration (Bacillus sphaericus; HAuCl4 100 μM) | Microbial growth in dependence on HAuCl4 concentration (Bacillus sphaericus; HAuCl4 200 μM) | Microbial growth in dependence on HAuCl4 concentration ([1]; HAuCl4 2 μM) | Microbial growth in dependence on HAuCl4 concentration ([1]; HAuCl4 20 μM) | Microbial growth in dependence on HAuCl4 concentration ([1]; HAuCl4 100 μM) | Microbial growth in dependence on HAuCl4 concentration ([1]; HAuCl4 200 μM) | Microbial growth in dependence on HAuCl4 concentration ([1]; HAuCl4 300 μM) | Microbial growth in dependence on HAuCl4 concentration ([1]; HAuCl4 400 μM) | Microbial growth in dependence on HAuCl4 concentration ([1]; HAuCl4 500 μM) | Microbial growth in dependence on HAuCl4 concentration (Escherichia coli; HAuCl4 2 μM) | Microbial growth in dependence on HAuCl4 concentration (Escherichia coli; HAuCl4 20 μM) | Microbial growth in dependence on HAuCl4 concentration (Escherichia coli; HAuCl4 100 μM) | Microbial growth in dependence on HAuCl4 concentration (Escherichia coli; HAuCl4 200 μM) | Microbial growth in dependence on HAuCl4 concentration (Escherichia coli; HAuCl4 300 μM) | Microbial growth in dependence on HAuCl4 concentration (Xanthomonas campestris; HAuCl4 2 μM) | Microbial growth in dependence on HAuCl4 concentration (Xanthomonas campestris; HAuCl4 20 μM) | Microbial growth in dependence on HAuCl4 concentration (Xanthomonas campestris; HAuCl4 100 μM) | Microbial growth in dependence on HAuCl4 concentration (Xanthomonas campestris; HAuCl4 200 μM) | Microbial growth in dependence on HAuCl4 concentration (Xanthomonas campestris; HAuCl4 300 μM)

O=[N+]([O-])[O-].[Ag+] [AgNO3]
(x): Microbial growth in dependence on AgNO3 concentration ([1]; AgNO3 200 μM)
x: Microbial growth in dependence on AgNO3 concentration (Bacillus sphaericus; AgNO3 2 μM) | Microbial growth in dependence on AgNO3 concentration (Bacillus sphaericus; AgNO3 10 μM) | Microbial growth in dependence on AgNO3 concentration (Bacillus sphaericus; AgNO3 20 μM) | Microbial growth in dependence on AgNO3 concentration (Bacillus sphaericus; AgNO3 50 μM) | Microbial growth in dependence on AgNO3 concentration (Bacillus sphaericus; AgNO3 100 μM) | Microbial growth in dependence on AgNO3 concentration (Bacillus sphaericus; AgNO3 150 μM) | Microbial growth in dependence on AgNO3 concentration ([1]; AgNO3 2 μM) | Microbial growth in dependence on AgNO3 concentration ([1]; AgNO3 10 μM) | Microbial growth in dependence on AgNO3 concentration ([1]; AgNO3 20 μM) | Microbial growth in dependence on AgNO3 concentration ([1]; AgNO3 50 μM) | Microbial growth in dependence on AgNO3 concentration ([1]; AgNO3 100 μM) | Microbial growth in dependence on AgNO3 concentration ([1]; AgNO3 150 μM) | Microbial growth in dependence on AgNO3 concentration (Escherichia coli; AgNO3 2 μM) | Microbial growth in dependence on AgNO3 concentration (Escherichia coli; AgNO3 10 μM) | Microbial growth in dependence on AgNO3 concentration (Escherichia coli; AgNO3 20 μM) | Microbial growth in dependence on AgNO3 concentration (Escherichia coli; AgNO3 50 μM) | Microbial growth in dependence on AgNO3 concentration (Escherichia coli; AgNO3 100 μM) | Microbial growth in dependence on AgNO3 concentration (Xanthomonas campestris; AgNO3 2 μM) | Microbial growth in dependence on AgNO3 concentration (Xanthomonas campestris; AgNO3 10 μM) | Microbial growth in dependence on AgNO3 concentration (Xanthomonas campestris; AgNO3 20 μM) | Microbial growth in dependence on AgNO3 concentration (Xanthomonas campestris; AgNO3 50 μM) | Microbial growth in dependence on AgNO3 concentration (Xanthomonas campestris; AgNO3 100 μM)
